The values below come from US6730707B2, “Method for reducing intraocular pressure using indole derivatives” (Inspire Pharmaceuticals, Inc., priority 2000, dated 2004).

Like-named read-outs stand apart in the source and are kept apart here.

This test concerns New Zealand white rabbits. Nature of the test: Effects on intraocular pressure (IOP) in rabbits, TONOPEN contact tonometer, topical unilateral application. The test is classed as in vivo, rabbit. To be noted: for maximal reduction of IOP / IC50: topical; for maximal reduction of IOP: n=8; for IC50: Oryctolagus cuniculus; for persistence of the IOP-lowering effect / time at which the maximal effect on IOP was observed: after topical application; for IOP-lowering effect after pretreatment with luzindole: luzindole 100 μg/10 μL applied 30 min before (FIG. 4). How it is done: IOP was measured using a TONOPEN contact tonometer supplied by Xomed (Jacksonville, Fla., USA). Ten microliters of the agents were applied topically and unilaterally to the cornea, whereas the contralateral eye received the same volume of saline solution. The corneas were anesthetized to avoid any discomfort associated with the use of the tonometer. Two measurements were made before application of the agents. Melatonin (Sigma, St. […] A single dose was tested in a single animal on a single day.

Regarding `COC(=O)Nc1ccc2[nH]cc(CCNC(C)=O)c2c1` [Example 5-MCA-NAT, 5-(methoxycarbonylamino)-N-acetyltryptamine], the “persistence of the IOP-lowering effect” value was determined as 10 h, the “time at which the maximal effect on IOP was observed” value turned out to be 2 h and the “IOP-lowering effect after pretreatment with luzindole” value is “abolished”. Further, the “maximal reduction of IOP” value (5-MCA-NAT, maximal at 100 pg/10 μL) stood at 43.1±3.65%. For the same compound, the half-inhibitory concentration (IC50) (read-out: IC50 for lowering IOP) worked out at 423 ± 30 µg/mL. Where the note is “read-out: IC50 for lowering IOP, equivalent dose”, the IC50 came to 1.8 ± 0.1 nM. Also, under “comparison of maximal responses”, the “maximal IOP response relative to melatonin” value is reported as “almost twice”.
Take `CC(=O)NCCc1c(Cc2ccccc2)[nH]c2ccccc12` [luzindole]: the “effect on IOP when applied alone” value (100 μg/10 μL, over a duration of six hours) is “had no effect”.
Consider `COc1ccc2[nH]cc(CCNC(C)=O)c2c1` [melatonin], for which the “persistence of the IOP-lowering effect” value was determined as 3 h, the “time at which the maximal effect on IOP was observed” value is 1 h and the “IOP-lowering effect after pretreatment with luzindole” value is given as “abolished”. Besides, the IC50 (equivalent of the IC50 dose (FIG. 3), read-out: IC50 for lowering IOP, equivalent dose) worked out at 1.6 ± 0.1 nM. Further, the “IC50 for lowering IOP” value (dose-response 10 pg/10 μL to 1 mg/10 μL, topical (FIG. 3)) is on record as 363±23.0 ng/10 μL. In addition, for the setting “melatonin, maximal at 10 μg/10 μL”, the “maximal reduction of IOP” value is 24±4.4%.

As usually defined, the IC50 is the concentration at which inhibition is half-maximal.
